Measured values published in paper PMC8220418, “A fragment-based approach to assess the ligandability of ArgB, ArgC, ArgD and ArgF in the L-arginine biosynthetic pathway of Mycobacterium tuberculosis” (Computational and Structural Biotechnology Journal, 2021).
In brackets after ≈: the same amount, converted by molar mass. Where two headings read alike, the source gives them in different places.

How the values were obtained:
ArgF = ArgF (Mycobacterium tuberculosis, UniProt P9WIT9); test: biochemical; format: binding; conditions: natural ligands at 1 mM
Description: Fragment screening was carried out in a 96-well PCR plate using a CFX Connect Real-time PCR Detection System (Bio-Rad) for DSF. […] For ArgF each 25 μL reaction mixture contained 5 µM ArgF, 25 mM Tris-HCl (pH 8.0), 150 mM NaCl, 5x SYPRO Orange dye, 5 mM fragments and 5% DMSO (v/v). […] The protocol implemented increased temperature by 0.5 °C after every 30 s, going from 25 °C to 95 °C and measuring SYPRO Orange fluorescence for each temperature cycle. The melt curve RFU (relative fluorescence units) and derivative -d(RFU)/dT values were analysed and plotted using a macros-enabled Excel Workbook: the minima of the melt curves were recorded as the melting temperature (Tm) of the enzymes in the presence of each fragment. The Tm of the reference control (protein in the presence of DMSO) was subtracted from all the readings to calculate ΔTm.

ArgB [1] = biological target: T1, ArgB (Mycobacterium tuberculosis, UniProt P9WQ01); test: Differential scanning fluorimetry (DSF) fragment screening against ArgB; format: binding; conditions: known ligands (positive controls); 1 mM for ATP, N-acetyl-glutamate, L-arginine
Description: (§1) Fragment screening was carried out in a 96-well PCR plate using a CFX Connect Real-time PCR Detection System (Bio-Rad) for DSF. For ArgB, each 25 μL reaction mixture contained 10 µM ArgB, 100 mM HEPES (pH 7.5), 200 mM NaCl, 5x SYPRO Orange, 5% DMSO (v/v), and fragments at 5 mM. For ArgF each 25 μL reaction mixture contained 5 µM ArgF, 25 mM Tris-HCl (pH 8.0), 150 mM NaCl, 5x SYPRO Orange dye, 5 mM fragments and 5% DMSO (v/v). For ArgC and ArgD, the 25 μL reaction volume consisted of the following: 2.5 μM ArgC/5 μM ArgD, 100 mM sodium phosphate pH 7, 200 mM NaCl, 5x SYPRO Orange, and 5 mM fragments (960 fragment library). The protocol implemented increased temperature by 0.5 °C after every 30 s, going from 25 °C to 95 °C and measuring SYPRO Orange fluorescence for each temperature cycle. The melt curve RFU (relative fluorescence units) and derivative -d(RFU)/dT values were analysed and plotted using a macros-enabled Excel Workbook: the minima of the melt curves were recorded as the melting temperature (Tm) of the enzymes in the presence of each fragment. The Tm of the reference control (protein in the presence of DMSO) was subtracted from all the readings to calculate ΔTm.

ArgC [2] = biological target: T2, ArgC (Mycobacterium tuberculosis, UniProt P9WPZ9); test: X-ray crystallography of ArgC soaked with fragments (binding site); conditions: crystal soaking
Description: ArgC crystals grown in pH 5.5 were first soaked in 1.5 µL drops containing the mother liquor and 5 mM NADP^+ for 2 h in hanging drops that were equilibrated against a reservoir of 500 µL. Thereafter, the crystals were transferred to drops containing the crystallisation condition and an SPR-validated fragments (20 mM, 10% DMSO), which were equilibrated against 500 µL of mother liquor also containing a corresponding percentage of DMSO overnight at 19 °C. ArgC crystals grown in pH 7 were soaked with 5 mM NADP^+ only for 5–10 min due to the rapid development of cracks, and transferred to the fragment soaking drops for 5–10 min from where they were fished and frozen.
X-ray diffraction data (single-wavelength anomalous diffraction) were collected on beamlines i02, i03, i04, i04-1 and i24 at the Diamond Light Source (DLS), UK and on id30B at The European Synchrotron Radiation Facility (ESRF). Diffraction data were processed and reduced with autoPROC from Global Phasing Limited or Xia2 [31]. The apo-form of ArgB was crystallised in the R3_2 space group with one protomer per asymmetric unit (ASU) and the ArgB:NAG complex in the P6_3 space group with two protomers per ASU. ArgF was crystallized in the P2_1 space group with 6 protomers in the ASU. ArgC was crystallised in C2 and P2_1 space groups, with 2 and 4/8 protomers per ASU respectively. ArgD was crystallised in the P2_1 space group as well but with 4 protomers in the ASU.
Initial phases were determined with PHASER [32] from PHENIX software package using the M. tuberculosis ArgB structure (PDB: 2AP9), M. tuberculosis ArgF structure (PDB: 2P2G), M. tuberculosis ArgC structure (PDB: 2I3G) and E. coli Succinyl-ornithine transaminase (AstC, 42% sequence identity, PDB: 4ADB) as a search models, respectively for ArgB, ArgF, ArgC and ArgD. Model building was done with Coot, and refinement was performed in PHENIX [33], [35] for ArgB, ArgF, and ArgC. For ArgD, after the initial molecular replacement solution and a single cycle of refinement, PHENIX AutoBuild was used to generate a model for M. tuberculosis ArgD that was then refined with Coot and PHENIX. Structure validation was performed using Coot and PHENIX tools, [34]. All figures were prepared with PyMOL (The PyMOL Molecular Graphics System, Version 2.0 Schrodinger, LLC).

ArgC [3] = biological target: T2, ArgC; test: Differential scanning fluorimetry (DSF) fragment screening against ArgC; format: binding; conditions: for DSF ΔTm: 1 mM co-factor, average across all DSF runs; for ΔTm at 5000 µM: fragments at 5 mM, 2.5 μM ArgC
Description: as §1

ArgC [4] = biological target: T2, ArgC; test: Surface plasmon resonance with immobilised ArgC; format: binding
Description: Low molecular weight (LMW) screening with the DSF fragment hits was carried out using the T200 Biacore instrument (GE Healthcare Life Sciences). A series S CM5 sensor chip (GE Healthcare Life Sciences) was used for the immobilisation of ArgC on the carboxymethylated dextran matrix through amine coupling. A 25 μg/mL ArgC dilution was prepared in the optimal coupling buffer (sodium acetate pH 5), and immobilisation was performed by manual instructions. The immobilised ArgC was tested using dilution series (19 μM to 2.5 mM) of NADP^+ and NADPH. 50 mM fragment DMSO stocks were used to prepare 1 mM dilutions in the SPR buffer consisting of 10 mM sodium phosphate pH 7.0, 150 mM NaCl and 2% DMSO (v/v). Each NADP^+/NADPH and fragment dilution was injected once at a flow rate of 30 μL/min for a contact time of 30 s, SPR Running buffer (10 mM sodium phosphate pH 7.0 and 150 mM NaCl) was passed for 320 s at the same flow rate, and 50% DMSO v/v (diluted in SPR running buffer) was injected at the end of the cycle to remove undissociated analyte. Solvent correction was carried out to account for DMSO mismatch between the analyte dilutions and the SPR running buffer.
The fragment hits obtained previously were injected at a concentration of 1 mM. The sensorgrams for all the analytes were inspected visually to exclude fragments with either no discernible response or a “sticky” profile from further analysis (representative sensorgrams for fragment binders are shown in Fig. S2a and b). The binding level was calculated using the T200 software and adjusted for molecular weights of the analytes (Fig. S2c and d). For ArgC, 22 fragments with a binding level response ≥20 RU were shortlisted, whereas in the case of ArgD, 20 fragments with a response ≥10 RU were shortlisted for crystallographic validation. Fragments were thereafter described either as SPR ‘positive’ or ‘negative’.

ArgC [5] = biological target: T2, ArgC; test: ArgC enzymatic assay (NADPH oxidation at 340 nm); format: biochemical; conditions: 2 mM fragment, 3.5 μM ArgC, 2.5% DMSO
Description: To synthesise the ArgC substrate, a reaction mixture containing 3 μM ArgB, 1 mM NAG and 1 mM ATP in 50 mM Tris-HCl pH 7.5, 100 mM NaCl and 40 mM MgCl2 was made and the reaction was allowed to proceed for 1–1.5 h at room temperature. Thereafter, 100 μL of the ArgC reaction mixture consisting of 50 mM Tris-HCl pH 7.5, 100 mM NaCl and 0.6 mM NADPH (concentration in 200 μL), was added to each well together with 100 μL of the ArgB reaction mixture and followed for 30 min at 35 °C by measuring the oxidation of NADPH at 340 nm. Controls with only NADPH, 2.5% DMSO (v/v) and no ArgC, as well as only NADPH, 4 mM fragment and no ArgC were prepared. Baseline ArgC activity was assayed with and without DMSO, the effect of 2.5% and 5% DMSO on enzymatic activity was also tested. […] All conditions were prepared in triplicates. 3.5 μM ArgC was added just before measurements were started.

M. tuberculosis H37Rv = test: microbe, parasite or virus in culture; format: cell-based, Mycobacterium tuberculosis
[6] = test system: M. tuberculosis MDR strain V2475; test: microbe, parasite or virus in culture; format: cell-based, Mycobacterium tuberculosis; conditions: Mycobacterium tuberculosis
M. tuberculosis ΔargB-c = test: microbe, parasite or virus in culture; format: cell-based, Mycobacterium tuberculosis
ArgB [7] = biological target: T1, ArgB; test: ArgB enzymatic assay (ADP release coupled to NADH oxidation, pyruvate kinase/lactate dehydrogenase); format: biochemical; conditions: IC50, 0.5 µM ArgB, 0.3 mM ATP, 1.25 mM NAG, 10% DMSO
Description: ArgB activity was assessed by a colorimetric assay that followed the release of ADP by measuring the oxidation of NADH at 340 nm, for 30 min, in the presence of pyruvate kinase and lactate dehydrogenase in a PHERAstar plate-reader (BMG-Labtech). […]. Inhibitors were also individually screened against the coupled enzymes to eliminate any compounds interfering with the other assay components. Competition assays were performed in the same conditions using 0.3 mM of ATP or NAG and varying the other substrate concentration.

ArgB [8] = biological target: T1, ArgB; test: biochemical; format: binding; conditions: ITC Kd, six-site sequential binding model, 25 °C, sequential binding, six-site model
ArgD = ArgD (Mycobacterium tuberculosis, UniProt P9WPZ7); test: Differential scanning fluorimetry (DSF) against ArgD; format: binding
[9] = fragments at 1 mM, adjusted for molecular weight

T2 sequence (P9WPZ9 whole entry, the tested form may be a part): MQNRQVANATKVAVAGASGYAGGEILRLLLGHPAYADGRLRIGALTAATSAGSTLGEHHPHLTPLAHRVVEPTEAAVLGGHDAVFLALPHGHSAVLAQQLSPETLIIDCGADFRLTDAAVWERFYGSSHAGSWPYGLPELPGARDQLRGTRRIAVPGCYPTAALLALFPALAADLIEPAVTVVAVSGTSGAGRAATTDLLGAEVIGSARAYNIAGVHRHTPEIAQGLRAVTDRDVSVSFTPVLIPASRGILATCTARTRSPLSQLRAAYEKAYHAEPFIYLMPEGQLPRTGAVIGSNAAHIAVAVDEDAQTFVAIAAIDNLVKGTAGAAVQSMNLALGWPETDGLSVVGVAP
Chain of ArgD (P9WPZ7 whole entry, the tested form may be a part): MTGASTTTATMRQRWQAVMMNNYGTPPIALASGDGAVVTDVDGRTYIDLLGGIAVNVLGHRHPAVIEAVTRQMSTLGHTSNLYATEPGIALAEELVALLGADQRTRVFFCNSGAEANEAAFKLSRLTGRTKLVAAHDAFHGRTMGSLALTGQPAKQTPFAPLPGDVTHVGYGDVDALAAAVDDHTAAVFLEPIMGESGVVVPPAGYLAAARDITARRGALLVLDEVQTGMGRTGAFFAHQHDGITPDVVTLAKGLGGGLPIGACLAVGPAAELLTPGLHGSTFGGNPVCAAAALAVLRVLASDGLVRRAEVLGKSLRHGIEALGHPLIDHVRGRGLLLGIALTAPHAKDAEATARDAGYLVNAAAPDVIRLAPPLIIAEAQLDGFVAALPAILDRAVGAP
Chain of ArgF (P9WIT9 whole entry, the tested form may be a part): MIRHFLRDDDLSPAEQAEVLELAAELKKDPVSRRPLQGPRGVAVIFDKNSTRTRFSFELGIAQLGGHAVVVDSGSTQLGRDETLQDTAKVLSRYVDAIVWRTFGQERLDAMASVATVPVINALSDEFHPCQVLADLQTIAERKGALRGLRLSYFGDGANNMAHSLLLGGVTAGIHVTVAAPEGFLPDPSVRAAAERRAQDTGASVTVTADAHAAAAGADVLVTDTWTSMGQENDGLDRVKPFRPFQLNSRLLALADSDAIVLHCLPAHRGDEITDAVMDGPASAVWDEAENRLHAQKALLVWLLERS

SMILES: NCCC[C@H](N)C(=O)O [L-ornithine, reference compound]
- DSF ΔTm (ArgF): 1.5 °C

SMILES: Nc1ncnc2c1ncn2[C@@H]1O[C@H](COP(=O)(O)OP(=O)(O)OP(=O)(O)O)[C@@H](O)[C@H]1O [ATP]
- DSF ΔTm (ArgB [1]): +2.0 °C

SMILES: NC(=O)c1ccc[n+]([C@@H]2O[C@H](COP(=O)([O-])OP(=O)(O)OC[C@H]3O[C@@H](n4cnc5c(N)ncnc54)[C@H](OP(=O)(O)O)[C@@H]3O)[C@@H](O)[C@H]2O)c1 [NADP, reference compound]
- Binding site (X-ray) (ArgC [2]): Co-factor
- DSF ΔTm (ArgC [3]): +0.6 °C
- DSF ΔTm (ArgC [3]; listed as NADP^+): ~ 0.6 °C
- SPR Binding Response (ArgC [4]; 1.25 mM): 19.5 (1.25 mM) RU

SMILES: COc1ccc2oc(C(=O)O)nc2c1 [NMR863, 5-methoxy-1,3-benzoxazole-2-carboxylic acid]
- Binding site (X-ray) (ArgC [2]): Co-factor
- ΔTm at 5000 µM (ArgC [3]): 5 °C
- inhibition at 2000 µM (ArgC [5]): 12%
- SPR Binding Response (ArgC [4]; [9]): 41.6 RU

SMILES: CC(=O)N[C@@H](CCC(=O)O)C(=O)O [NAG, N-acetyl-L-glutamic acid]
- ΔTm at 1000 µM (ArgB [1]): 8.6 °C

SMILES: NC(N)=NOCC[C@H](N)C(=O)O [L-canavanine, reference compound]
- MIC (M. tuberculosis H37Rv; Mycobacterium tuberculosis, media without arginine): 50 µg/mL (≈ 284 µM)
- Inhibitory activity on growth with arginine present (M. tuberculosis H37Rv; arginine (1 mM) in the media): no inhibitory activity
- MIC [6]: > 200 µg/mL
- Inhibitory activity on growth with arginine present (M. tuberculosis ΔargB-c): no inhibitory activity
- MIC (M. tuberculosis ΔargB-c; Mycobacterium tuberculosis): 50 µg/mL (≈ 284 µM)
- IC50 (ArgB [7]): 1460 ± 2 µM
- ΔTm at 1000 µM (ArgB [1]): 7.2 °C
- Kd (ArgB [8]; 1st value): 4.5 µM
- Kd (ArgB [8]; 2nd value): 4.8 µM
- Kd (ArgB [8]; 3rd value): 6.4 µM
- Kd (ArgB [8]; 4th value): 34 µM
- Kd (ArgB [8]; 5th value): 35 µM
- Kd (ArgB [8]; 6th value): 137 µM

SMILES: COc1ccc2[nH]cc(CC(=O)O)c2c1 [NMR322, 5-Methoxy-3-indoleacetic acid]
- Binding site (X-ray) (ArgC [2]): Substrate
- ΔTm at 5000 µM (ArgC [3]): 3.1 °C
- inhibition at 2000 µM (ArgC [5]): 45%
- SPR Binding Response (ArgC [4]; [9]): 80.5 RU

SMILES: NC(=O)C1=CN([C@@H]2O[C@H](COP(=O)(O)OP(=O)(O)OC[C@H]3O[C@@H](n4cnc5c(N)ncnc54)[C@H](OP(=O)(O)O)[C@@H]3O)[C@@H](O)[C@H]2O)C=CC1 [NADPH, reference compound]
- Binding site (X-ray) (ArgC [2]): Co-factor
- DSF ΔTm (ArgC [3]): −0.9 °C
- SPR Binding Response (ArgC [4]; 1.25 mM): 16.3 (1.25 mM) RU

SMILES: O=C(O)C1c2ccccc2Oc2ccccc21 [NMR571, Xanthene-9-carboxylic acid]
- Binding site (X-ray) (ArgC [2]): Substrate
- ΔTm at 5000 µM (ArgC [3]): 3.1 °C
- inhibition at 2000 µM (ArgC [5]): 37%
- SPR Binding Response (ArgC [4]; [9]): 78.0 RU

SMILES: Cc1ncc(COP(=O)(O)O)c(C=O)c1O [PLP, pyridoxal-5′-phosphate]
- Melting temperature of ArgD after addition of PLP (ArgD): 79 °C
- ΔTm at 1000 µM (ArgD; PLP (1 mM), PLP-unsaturated ArgD): 13 °C
- Melting temperature of ArgD after addition of PLP (ArgD; PLP-unsaturated ArgD + 1 mM PLP): 77.5 °C

SMILES: N=C(N)NCCC[C@H](N)C(=O)O [L-arginine]
- IC50 (ArgB [7]): 146 ± 1 µM
- ΔTm at 1000 µM (ArgB [1]): 11.8 °C
- Kd (ArgB [8]; 1st value): 4.5 µM
- Kd (ArgB [8]; 2nd value): 4.8 µM
- Kd (ArgB [8]; 3rd value): 6.1 µM
- Kd (ArgB [8]; 4th value): 9.4 µM
- Kd (ArgB [8]; 5th value): 12.9 µM
- Kd (ArgB [8]; 6th value): 42 µM

SMILES: Nc1ccc(Oc2ccccc2)nc1 [NMR401, 6-phenoxy-3-pyridinamine]
- Binding site (X-ray) (ArgC [2]): Co-factor
- ΔTm at 5000 µM (ArgC [3]): 4.8 °C
- inhibition at 2000 µM (ArgC [5]): 10%
- SPR Binding Response (ArgC [4]; [9]): 36.7 RU
